EP2951180B1, “2,6,7,8 SUBSTITUTED PURINES AS HDM2 INHIBITORS” (Merck Sharp & Dohme Corp., priority 2013, dated 2014)
Like-named read-outs stand apart in the source and are kept apart here.

Target: T1, HDM2 (Homo sapiens, UniProt Q00987)
T1 construct: Thioredoxin (N); made in house; host or cells: E. coli strain BL21(DE3)Rosetta
Assay: HDM2 FRET assay (inhibition of binding of FITC labeled p53-pocket peptide to HDM2)
Details: for IC50: read-out: FRET IC50
Outline: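 Compounds were tested in 10-point serial dilution against 0.5 nM recombinant HDM2 binding 3 nM fluorescein-labeled p53-pocket peptide. Detection used 0.25 nM terbium cryptate anti-6xHis antibody in PBS buffer containing 0.01% BSA and 0.01% Tween-20.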

[1] = 0.5 nM HDM2 (residues 17 to 125), 3nM peptide, two hour incubation at room temperature

T1 sequence (Q00987 17-125): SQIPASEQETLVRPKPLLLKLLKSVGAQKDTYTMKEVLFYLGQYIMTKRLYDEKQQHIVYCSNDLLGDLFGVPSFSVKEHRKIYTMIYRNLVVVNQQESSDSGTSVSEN

## C[C@@H]1COC[C@@H](C)N1c1nc2nc(-c3noc(=O)[nH]3)nc(N[C@H](C)C3CCC3)c2n1C[C@H]1CC[C@H](C)CC1 [Example 11.129, 3-(6-{[(1R)-1-cyclobutylethyl]amino}-8-[(3R,5R)-3,5-dimethylmorpholin-4-yl]-7-[(trans-4-methylcyclohexyl)methyl]-7H-purin-2-yl)-1,2,4-oxadiazol-5(4H)-one]
Table 11
  IC50: 0.788 nM

## C[C@@H](Nc1nc(-c2noc(=O)[nH]2)nc2nc(N3CCCC3c3ccccc3)n(C[C@H]3CC[C@H](C)CC3)c12)C1CCC1 (stereo partly drawn) [Example 11.130, 3-[6-{[(1R)-1-cyclobutylethyl]amino}-7-[(trans-4-methylcyclohexyl)methyl]-8-(2-phenylpyrrolidin-1-yl)-7H-purin-2-yl]-1,2,4-oxadiazol-5(4H)-one]
Table 11
  IC50: 2.05 nM

## C[C@@H](Nc1nc(-c2n[nH]c(=O)o2)nc2nc(N3CCC[C@H]3C(F)(F)F)n(C[C@H]3CC[C@H](C)CC3)c12)C1CCC1 [Example 11.137, 5-(6-{[(1R)-1-cyclobutylethyl]amino}-7-[(trans-4-methylcyclohexyl)methyl]-8-[(2S)-2-(trifluoromethyl)pyrrolidin-1-yl]-7H-purin-2-yl)-1,3,4-oxadiazol-2(3H)-one]
Table 11
  IC50: 0.881 nM

## C[C@@H](Nc1nc(-c2noc(=O)[nH]2)nc2nc(N3CCOC[C@H]3c3ccccn3)n(C[C@H]3CC[C@H](C)CC3)c12)C1CCC1 [Example 11.142, 3-(6-{[(1R)-1-cyclobutylethyl]amino}-7-[(trans-4-methylcyclohexyl)methyl]-8-[(3R)-3-pyridin-2-ylmorpholin-4-yl]-7H-purin-2-yl)-1,2,4-oxadiazol-5(4H)-one]
Table 11
  IC50: 0.774 nM

## C[C@@H](Nc1nc(-c2noc(=O)[nH]2)nc2nc(N3CCOC[C@H]3c3ccncc3)n(C[C@H]3CC[C@H](C)CC3)c12)C1CCC1 [Example 11.145, 3-(6-{[(1R)-1-cyclobutylethyl]amino}-7-[(trans-4-methylcyclohexyl)methyl]-8-[(3R)-3-pyridin-4-ylmorpholin-4-yl]-7H-purin-2-yl)-1,2,4-oxadiazol-5(4H)-one]
Table 11
  IC50: 1.31 nM

## C[C@@H](Nc1nc(-c2noc(=O)[nH]2)nc2nc(N3CC4CC4C3C(F)(F)F)n(C[C@H]3CC[C@H](C)CC3)c12)C1CCC1 (stereo partly drawn) [Example 11.152, 3-(6-{[(1R)-1-cyclobutylethyl]amino}-7-[(trans-4-methylcyclohexyl)methyl]-8-[2-(trifluoromethyl)-3-azabicyclo[3.1.0]hex-3-yl]-7H-purin-2-yl)-1,2,4-oxadiazol-5(4H)-one]
Table 11
  IC50: 3.09 nM

## C[C@@H](Nc1nc(-c2noc(=O)[nH]2)nc2nc(N3CCCC3CS(C)(=O)=O)n(C[C@H]3CC[C@H](C)CC3)c12)C1CCC1 (stereo partly drawn) [Example 11.153, 3-(6-{[(1R)-1-cyclobutylethyl]amino}-7-[(trans-4-methylcyclohexyl)methyl]-8-{2-[(methylsulfonyl)methyl]pyrrolidin-1-yl}-7H-purin-2-yl)-1,2,4-oxadiazol-5(4H)-one]
Table 11
  IC50: 65.6 nM

## C[C@@H]1OCCN(c2nc3nc(-c4noc(=O)[nH]4)nc(N[C@H](C)C4CCC4)c3n2C[C@H]2CC[C@H](C)CC2)[C@@H]1c1ccccc1 [Example 11.163, 3-(6-{[(1R)-1-cyclobutylethyl]amino}-7-[(trans-4-methylcyclohexyl)methyl]-8-[(2S,3R)-2-methyl-3-phenylmorpholin-4-yl]-7H-purin-2-yl)-1,2,4-oxadiazol-5(4H)-one]
Table 11
  IC50: 21.2 nM

## C[C@@H]1OCCN(c2nc3nc(-c4n[nH]c(=O)o4)nc(N[C@H](C)C4CCC4)c3n2C[C@H]2CC[C@H](C)CC2)[C@@H]1c1ccccc1 [Example 11.164, 5-(6-{[(1R)-1-cyclobutylethyl]amino}-7-[(trans-4-methylcyclohexyl)methyl]-8-[(2S,3R)-2-methyl-3-phenylmorpholin-4-yl]-7H-purin-2-yl)-1,3,4-oxadiazol-2(3H)-one]
Table 11
  IC50: 31 nM

## C[C@@H](Nc1nc(-c2noc(=O)[nH]2)nc2nc(N3CCO[C@H](C)[C@H]3c3ccccc3)n(C[C@H]3CC[C@H](C)CC3)c12)C1CCC1 [Example 11.165, 3-(6-{[(1R)-1-cyclobutylethyl]amino}-7-[(trans-4-methylcyclohexyl)methyl]-8-[(2R,3R)-2-methyl-3-phenylmorpholin-4-yl]-7H-purin-2-yl)-1,2,4-oxadiazol-5(4H)-one]
Table 11
  IC50: 0.767 nM

## C[C@@H](Nc1nc(-c2n[nH]c(=O)o2)nc2nc(N3CCO[C@H](C)[C@H]3c3ccccc3)n(C[C@H]3CC[C@H](C)CC3)c12)C1CCC1 [Example 11.166, 5-(6-{[(1R)-1-cyclobutylethyl]amino}-7-[(trans-4-methylcyclohexyl)methyl]-8-[(2R,3R)-2-methyl-3-phenylmorpholin-4-yl]-7H-purin-2-yl)-1,3,4-oxadiazol-2(3H)-one]
Table 11
  IC50: 0.79 nM

## CC(C)c1ccnc(-c2nc3nc(-c4nnn[nH]4)nc(N[C@H](C)C4CCC4)c3n2Cc2ccc(C(F)(F)F)cc2)c1 [Example 12.1, N-[(1R)-1-cyclobutylethyl]-8-[4-(propan-2-yl)pyridin-2-yl]-2-(1H-tetrazol-5-yl)-7-[4-(trifluoromethyl)benzyl]-7H-purin-6-amine]
[1]
  IC50: 8.35 nM

## CC(C)c1ccnc(-c2nc3nc(CO)nc(N[C@H](C)C4CCC4)c3n2Cc2ccc(C(F)(F)F)cc2)c1 [Example 12.2, (6-{[(1R)-1-cyclobutylethyl]amino}-8-[4-(propan-2-yl)pyridin-2-yl]-7-[4-(trifluoromethyl)benzyl]-7H-purin-2-yl)methanol]
[1]
  IC50: 597 nM

## CC(C)c1ccnc(-c2nc3nc(-c4cnn[nH]4)nc(N[C@H](C)C4CCC4)c3n2Cc2ccc(C(F)(F)F)cc2)c1 [Example 12.3, N-[(1R)-1-cyclobutylethyl]-8-[4-(propan-2-yl)pyridin-2-yl]-2-(1H-1,2,3-triazol-5-yl)-7-[4-(trifluoromethyl)benzyl]-7H-purin-6-amine]
[1]
  IC50: 535 nM

## CC(C)c1ccnc(-c2nc3nc(CN)nc(N[C@H](C)C4CCC4)c3n2C[C@H]2CC[C@H](C)CC2)c1 [Example 12.4, 2-(aminomethyl)-N-[(1R)-1-cyclobutylethyl]-7-[(trans-4-methylcyclohexyl)methyl]-8-[4-(propan-2-yl)pyridin-2-yl]-7H-purine-6-amine]
read-out: % inh. at 1000 nM, at 1000 nM compound
  inhibition at 1 µM: 39%

## CC(=O)c1nc(N[C@H](C)C2CCC2)c2c(n1)nc(-c1cc(C(C)C)ccn1)n2C[C@H]1CC[C@H](C)CC1 [Example 12.5, 1-(6-{[(1R)-1-cyclobutylethyl]amino}-7-[(trans-4-methylcyclohexyl)methyl]-8-[4-(propan-2-yl)pyridin-2-yl]-7H-purin-2-yl)ethanone]
[1]
  IC50: 471 nM

## CC(C)c1ccnc(-c2nc3nc(C(C)O)nc(N[C@H](C)C4CCC4)c3n2C[C@H]2CC[C@H](C)CC2)c1 (stereo partly drawn) [Example 12.6, 1-(6-{[(1R)-1-cyclobutylethyl]amino}-7-[(trans-4-methylcyclohexyl)methyl]-8-[4-(propan-2-yl)pyridin-2-yl]-7H-purin-2-yl)ethanol]
[1]
  IC50: 420 nM

## CC(C)c1ccnc(-c2nc3nc(C(C)(C)O)nc(N[C@H](C)C4CCC4)c3n2C[C@H]2CC[C@H](C)CC2)c1 [Example 12.7, 2-(6-{[(1R)-1-cyclobutylethyl]amino}-7-[(trans-4-methylcyclohexyl)methyl]-8-[4-(propan-2-yl)pyridin-2-yl]-7H-purin-2-yl)propan-2-ol]
[1]
  IC50: 731 nM
